Assay results as given in publication PMC5564600 (Oncotarget, 2017).

Assays:
Experiment in all cases: biochemical
Assay type in all cases: binding
panel of 442 kinases [1] = target: T1, panel of 442 kinases (Homo sapiens, UniProt Q8N568); details: DCAMKL2; for remaining activity at 1 µM: read-out: % of control at 1 µM
T1 construct: purchased Ambit Biosciences (scanMAXX KINOMEscan)

panel of 442 kinases [2] = target: T2, panel of 442 kinases (Homo sapiens, UniProt Q06418); details: kinase TYRO3; for remaining activity at 1 µM: read-out: TYRO3 (% of control at 1 µM)
T2 construct: purchased Ambit Biosciences (scanMAXX KINOMEscan)
T2 sequence (Q06418 41-890): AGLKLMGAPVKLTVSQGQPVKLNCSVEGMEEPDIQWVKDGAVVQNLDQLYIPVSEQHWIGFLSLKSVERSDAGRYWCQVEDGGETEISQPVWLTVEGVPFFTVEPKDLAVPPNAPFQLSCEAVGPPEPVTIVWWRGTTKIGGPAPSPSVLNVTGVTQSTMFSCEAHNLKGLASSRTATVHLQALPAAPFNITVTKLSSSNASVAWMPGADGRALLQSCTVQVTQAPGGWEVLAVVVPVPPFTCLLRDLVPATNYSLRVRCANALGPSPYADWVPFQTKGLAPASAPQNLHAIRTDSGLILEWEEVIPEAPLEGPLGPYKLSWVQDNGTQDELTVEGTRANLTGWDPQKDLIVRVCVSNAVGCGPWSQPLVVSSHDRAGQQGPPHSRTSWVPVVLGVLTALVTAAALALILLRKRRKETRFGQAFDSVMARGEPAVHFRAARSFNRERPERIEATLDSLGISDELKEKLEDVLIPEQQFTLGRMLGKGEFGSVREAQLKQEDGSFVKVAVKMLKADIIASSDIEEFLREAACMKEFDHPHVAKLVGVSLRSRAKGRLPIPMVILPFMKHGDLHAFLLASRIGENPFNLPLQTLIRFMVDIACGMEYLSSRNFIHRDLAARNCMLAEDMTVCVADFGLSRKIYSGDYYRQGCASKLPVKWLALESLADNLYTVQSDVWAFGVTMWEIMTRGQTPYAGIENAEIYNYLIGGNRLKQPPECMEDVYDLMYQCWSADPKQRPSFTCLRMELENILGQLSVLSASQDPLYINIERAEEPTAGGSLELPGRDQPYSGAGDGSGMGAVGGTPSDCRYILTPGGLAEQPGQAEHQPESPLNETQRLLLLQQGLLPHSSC

panel of 442 kinases [3] = target: T3, panel of 442 kinases (Homo sapiens, UniProt P17948); details: FLT1; for remaining activity at 1 µM: read-out: % of control at 1 µM
T3 construct: purchased Ambit Biosciences (scanMAXX KINOMEscan)

panel of 442 kinases [4] = target: T4, panel of 442 kinases (Homo sapiens, UniProt Q96BR1); details: kinase SGK3; for remaining activity at 1 µM: read-out: SGK3 (% of control at 1 µM)
T4 construct: purchased Ambit Biosciences (scanMAXX KINOMEscan)
T4 sequence (Q96BR1 1-496): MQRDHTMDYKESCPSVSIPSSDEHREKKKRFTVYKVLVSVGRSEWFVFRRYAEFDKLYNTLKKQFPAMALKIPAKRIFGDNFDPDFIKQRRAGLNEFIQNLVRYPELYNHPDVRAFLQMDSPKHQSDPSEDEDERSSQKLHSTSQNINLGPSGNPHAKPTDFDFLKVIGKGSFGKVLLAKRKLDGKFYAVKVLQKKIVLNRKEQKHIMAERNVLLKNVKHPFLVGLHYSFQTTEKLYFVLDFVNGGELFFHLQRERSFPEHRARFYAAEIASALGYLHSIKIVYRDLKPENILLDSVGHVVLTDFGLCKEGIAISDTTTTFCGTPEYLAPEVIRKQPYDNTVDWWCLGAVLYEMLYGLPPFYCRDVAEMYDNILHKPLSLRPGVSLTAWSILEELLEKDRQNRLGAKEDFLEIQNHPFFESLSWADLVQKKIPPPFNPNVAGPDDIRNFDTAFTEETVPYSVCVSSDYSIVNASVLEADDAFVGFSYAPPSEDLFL

panel of 442 kinases [5] = target: T5, panel of 442 kinases (Homo sapiens, UniProt Q9H093); details: kinase SNARK; for remaining activity at 1 µM: read-out: SNARK (% of control at 1 µM)
T5 construct: purchased Ambit Biosciences (scanMAXX KINOMEscan)
T5 sequence (Q9H093 1-628): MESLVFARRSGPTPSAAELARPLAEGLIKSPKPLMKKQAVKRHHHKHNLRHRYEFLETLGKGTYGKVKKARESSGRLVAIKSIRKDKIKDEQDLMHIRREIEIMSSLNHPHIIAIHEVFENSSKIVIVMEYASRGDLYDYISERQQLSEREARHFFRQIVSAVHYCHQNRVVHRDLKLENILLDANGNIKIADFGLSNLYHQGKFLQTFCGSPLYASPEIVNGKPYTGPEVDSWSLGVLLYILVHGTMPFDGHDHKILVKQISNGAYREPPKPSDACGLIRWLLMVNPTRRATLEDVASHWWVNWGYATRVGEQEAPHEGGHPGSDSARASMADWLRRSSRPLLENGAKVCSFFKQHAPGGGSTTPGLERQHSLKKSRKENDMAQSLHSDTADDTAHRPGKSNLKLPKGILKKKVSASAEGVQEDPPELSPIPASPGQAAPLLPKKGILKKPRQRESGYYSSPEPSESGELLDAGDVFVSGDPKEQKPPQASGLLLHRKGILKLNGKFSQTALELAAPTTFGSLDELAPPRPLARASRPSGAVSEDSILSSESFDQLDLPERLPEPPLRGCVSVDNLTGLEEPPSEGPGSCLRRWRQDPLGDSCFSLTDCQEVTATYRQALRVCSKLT

panel of 442 kinases [6] = target: T6, panel of 442 kinases (Homo sapiens, UniProt Q9UEE5); details: DRAK1; for remaining activity at 1 µM: read-out: % of control at 1 µM
T6 construct: purchased Ambit Biosciences (scanMAXX KINOMEscan)
T6 sequence (Q9UEE5 1-414): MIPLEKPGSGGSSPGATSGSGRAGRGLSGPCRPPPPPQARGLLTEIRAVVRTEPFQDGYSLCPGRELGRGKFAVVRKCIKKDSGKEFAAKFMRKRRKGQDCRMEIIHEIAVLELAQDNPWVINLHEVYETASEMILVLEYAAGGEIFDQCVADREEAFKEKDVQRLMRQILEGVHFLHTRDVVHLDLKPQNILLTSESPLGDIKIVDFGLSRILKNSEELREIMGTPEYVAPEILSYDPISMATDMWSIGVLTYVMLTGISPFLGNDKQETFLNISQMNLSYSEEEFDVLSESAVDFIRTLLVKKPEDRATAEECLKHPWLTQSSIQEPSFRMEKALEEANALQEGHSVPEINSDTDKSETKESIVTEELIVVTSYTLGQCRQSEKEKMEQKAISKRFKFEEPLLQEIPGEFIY

panel of 442 kinases [7] = target: T7, panel of 442 kinases (Homo sapiens, UniProt Q86Z02); details: kinase HIPK1; for remaining activity at 1 µM: read-out: % of control at 1 µM
T7 construct: purchased Ambit Biosciences (scanMAXX KINOMEscan)

panel of 442 kinases [8] = target: T8, panel of 442 kinases (Homo sapiens, UniProt Q16288); details: kinase TRKC; for remaining activity at 1 µM: read-out: TRKC (% of control at 1 µM)
T8 construct: purchased Ambit Biosciences (scanMAXX KINOMEscan)

[9] = 10 µM, read-out: % of control at 10 µM

T1 sequence (Q8N568 whole entry): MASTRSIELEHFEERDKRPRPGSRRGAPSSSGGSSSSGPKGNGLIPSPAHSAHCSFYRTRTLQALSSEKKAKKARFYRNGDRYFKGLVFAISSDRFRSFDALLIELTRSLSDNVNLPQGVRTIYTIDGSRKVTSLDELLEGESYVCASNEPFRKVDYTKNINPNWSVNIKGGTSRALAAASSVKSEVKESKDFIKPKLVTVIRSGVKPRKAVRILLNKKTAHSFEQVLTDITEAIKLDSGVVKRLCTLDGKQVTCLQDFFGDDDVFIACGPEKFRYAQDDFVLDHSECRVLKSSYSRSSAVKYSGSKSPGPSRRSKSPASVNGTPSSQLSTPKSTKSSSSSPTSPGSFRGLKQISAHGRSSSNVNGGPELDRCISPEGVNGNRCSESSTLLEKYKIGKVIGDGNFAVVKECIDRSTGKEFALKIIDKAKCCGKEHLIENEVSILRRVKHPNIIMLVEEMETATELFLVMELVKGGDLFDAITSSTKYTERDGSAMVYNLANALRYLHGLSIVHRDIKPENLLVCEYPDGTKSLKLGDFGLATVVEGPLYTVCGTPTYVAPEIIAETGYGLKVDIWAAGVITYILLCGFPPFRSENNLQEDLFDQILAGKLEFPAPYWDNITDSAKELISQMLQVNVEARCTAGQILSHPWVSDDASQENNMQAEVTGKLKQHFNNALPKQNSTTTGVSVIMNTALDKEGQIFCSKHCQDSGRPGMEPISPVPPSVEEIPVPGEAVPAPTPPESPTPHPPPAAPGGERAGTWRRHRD
T8 sequence (Q16288 32-839): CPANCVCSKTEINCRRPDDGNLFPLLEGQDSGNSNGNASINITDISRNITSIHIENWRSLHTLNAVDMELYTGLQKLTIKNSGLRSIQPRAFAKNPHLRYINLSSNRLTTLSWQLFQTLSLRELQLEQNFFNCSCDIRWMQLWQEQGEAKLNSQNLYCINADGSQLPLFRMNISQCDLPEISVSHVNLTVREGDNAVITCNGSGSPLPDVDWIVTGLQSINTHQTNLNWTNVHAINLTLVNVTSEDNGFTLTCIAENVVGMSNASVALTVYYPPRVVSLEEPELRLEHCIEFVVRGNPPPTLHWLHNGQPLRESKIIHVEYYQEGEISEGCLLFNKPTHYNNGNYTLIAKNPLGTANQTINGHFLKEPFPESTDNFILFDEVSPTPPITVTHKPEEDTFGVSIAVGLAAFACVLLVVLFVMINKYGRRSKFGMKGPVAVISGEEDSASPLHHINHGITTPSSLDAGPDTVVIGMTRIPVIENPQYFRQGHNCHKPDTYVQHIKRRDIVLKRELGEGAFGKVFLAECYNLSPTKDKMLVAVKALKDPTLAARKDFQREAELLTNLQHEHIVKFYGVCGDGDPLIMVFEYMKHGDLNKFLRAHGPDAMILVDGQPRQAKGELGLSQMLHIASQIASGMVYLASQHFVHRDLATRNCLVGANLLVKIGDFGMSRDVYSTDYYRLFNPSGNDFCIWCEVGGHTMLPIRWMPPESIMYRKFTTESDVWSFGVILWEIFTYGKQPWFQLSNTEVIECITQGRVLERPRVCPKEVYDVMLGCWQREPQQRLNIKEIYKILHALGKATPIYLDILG
T3 sequence (P17948 27-1338): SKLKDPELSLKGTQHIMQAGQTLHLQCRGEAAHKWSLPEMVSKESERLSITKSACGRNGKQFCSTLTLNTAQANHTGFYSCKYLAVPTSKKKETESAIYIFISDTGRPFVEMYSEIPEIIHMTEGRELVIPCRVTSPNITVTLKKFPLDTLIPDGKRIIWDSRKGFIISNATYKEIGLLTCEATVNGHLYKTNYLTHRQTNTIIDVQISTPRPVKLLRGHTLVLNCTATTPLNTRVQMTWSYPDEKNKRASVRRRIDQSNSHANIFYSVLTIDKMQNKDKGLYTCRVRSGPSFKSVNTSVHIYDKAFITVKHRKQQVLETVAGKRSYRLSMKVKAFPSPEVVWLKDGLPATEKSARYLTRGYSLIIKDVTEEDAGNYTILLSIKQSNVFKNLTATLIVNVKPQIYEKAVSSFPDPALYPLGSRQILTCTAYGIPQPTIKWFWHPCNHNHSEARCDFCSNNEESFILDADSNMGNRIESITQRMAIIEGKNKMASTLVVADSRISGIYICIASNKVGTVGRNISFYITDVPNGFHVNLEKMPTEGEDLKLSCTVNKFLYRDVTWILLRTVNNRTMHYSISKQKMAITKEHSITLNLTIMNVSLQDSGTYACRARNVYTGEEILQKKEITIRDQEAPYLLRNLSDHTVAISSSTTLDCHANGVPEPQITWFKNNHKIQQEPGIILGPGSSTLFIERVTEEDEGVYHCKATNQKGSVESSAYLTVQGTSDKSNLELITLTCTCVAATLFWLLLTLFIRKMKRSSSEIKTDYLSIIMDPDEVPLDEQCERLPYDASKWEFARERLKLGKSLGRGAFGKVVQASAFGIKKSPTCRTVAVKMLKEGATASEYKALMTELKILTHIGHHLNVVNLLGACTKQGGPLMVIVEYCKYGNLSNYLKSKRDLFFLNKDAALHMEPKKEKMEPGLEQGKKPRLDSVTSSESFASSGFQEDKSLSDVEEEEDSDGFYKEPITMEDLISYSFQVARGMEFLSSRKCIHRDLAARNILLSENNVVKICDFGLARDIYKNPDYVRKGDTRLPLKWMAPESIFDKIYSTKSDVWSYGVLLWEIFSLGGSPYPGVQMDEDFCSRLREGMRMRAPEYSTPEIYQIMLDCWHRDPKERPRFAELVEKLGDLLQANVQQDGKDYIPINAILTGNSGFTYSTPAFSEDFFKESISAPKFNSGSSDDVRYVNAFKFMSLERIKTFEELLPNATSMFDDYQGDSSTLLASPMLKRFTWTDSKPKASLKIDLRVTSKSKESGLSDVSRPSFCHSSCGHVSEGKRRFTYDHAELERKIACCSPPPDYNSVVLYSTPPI
T7 sequence (Q86Z02 whole entry): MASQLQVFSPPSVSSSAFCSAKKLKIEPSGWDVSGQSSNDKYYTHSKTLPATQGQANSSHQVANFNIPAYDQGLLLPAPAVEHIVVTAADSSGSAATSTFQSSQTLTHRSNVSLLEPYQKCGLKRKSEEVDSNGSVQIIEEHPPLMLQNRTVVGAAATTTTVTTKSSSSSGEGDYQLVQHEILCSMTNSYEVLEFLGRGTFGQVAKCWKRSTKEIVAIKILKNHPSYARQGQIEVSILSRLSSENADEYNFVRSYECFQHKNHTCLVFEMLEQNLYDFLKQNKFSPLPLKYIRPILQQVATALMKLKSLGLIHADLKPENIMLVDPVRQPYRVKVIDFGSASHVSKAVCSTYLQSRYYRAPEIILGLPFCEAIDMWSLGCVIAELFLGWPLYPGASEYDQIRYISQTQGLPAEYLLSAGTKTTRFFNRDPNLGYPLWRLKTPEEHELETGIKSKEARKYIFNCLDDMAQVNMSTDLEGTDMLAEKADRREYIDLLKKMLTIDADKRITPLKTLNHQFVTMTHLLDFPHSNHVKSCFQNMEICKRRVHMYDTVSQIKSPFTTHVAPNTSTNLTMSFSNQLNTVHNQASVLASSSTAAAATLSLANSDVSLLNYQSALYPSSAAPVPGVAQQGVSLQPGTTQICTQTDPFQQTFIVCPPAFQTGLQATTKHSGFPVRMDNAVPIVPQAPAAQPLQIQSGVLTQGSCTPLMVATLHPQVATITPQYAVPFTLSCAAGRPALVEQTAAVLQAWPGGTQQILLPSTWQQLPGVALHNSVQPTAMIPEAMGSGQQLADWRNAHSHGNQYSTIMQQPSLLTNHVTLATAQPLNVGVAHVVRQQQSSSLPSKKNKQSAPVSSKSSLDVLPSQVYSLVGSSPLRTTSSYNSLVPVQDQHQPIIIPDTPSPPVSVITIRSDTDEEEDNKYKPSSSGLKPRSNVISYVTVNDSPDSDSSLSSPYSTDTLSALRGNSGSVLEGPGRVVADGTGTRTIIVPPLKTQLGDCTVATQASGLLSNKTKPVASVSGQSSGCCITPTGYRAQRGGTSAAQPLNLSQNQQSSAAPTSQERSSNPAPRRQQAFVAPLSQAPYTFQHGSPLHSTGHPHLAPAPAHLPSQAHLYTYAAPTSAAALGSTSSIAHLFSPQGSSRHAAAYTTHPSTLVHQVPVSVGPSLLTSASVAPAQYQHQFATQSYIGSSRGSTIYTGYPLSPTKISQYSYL

With `Nc1cc(C(F)(F)F)c(-c2cc(N3CCOCC3)nc(N3CCOCC3)n2)cn1` [Buparlisib] the remaining activity at 1 µM (panel of 442 kinases [1]) was 100%, the remaining activity at 10 µM (panel of 442 kinases [1]; [9]) was 100% and the remaining activity at 1 µM (panel of 442 kinases [2]) was 100%. The remaining activity at 10 µM (panel of 442 kinases [2]; 10 µM, read-out: TYRO3 (% of control at 10 µM)) was 100%, the remaining activity at 1 µM (panel of 442 kinases [3]) was 100% and the remaining activity at 10 µM (panel of 442 kinases [3]; [9]) was 100%. It also gave a remaining activity at 1 µM (panel of 442 kinases [4]) of 79%, a remaining activity at 10 µM (panel of 442 kinases [4]; 10 µM, read-out: SGK3 (% of control at 10 µM)) of 100% and a remaining activity at 1 µM (panel of 442 kinases [5]) of 100%. For the same molecule, the remaining activity at 10 µM (panel of 442 kinases [5]; 10 µM, read-out: SNARK (% of control at 10 µM)) was 100%, the remaining activity at 1 µM (panel of 442 kinases [6]) was 100% and the remaining activity at 10 µM (panel of 442 kinases [6]; [9]) was 100%. It also gave a remaining activity at 1 µM (panel of 442 kinases [7]) of 100%, a remaining activity at 10 µM (panel of 442 kinases [7]; [9]) of 89% and a remaining activity at 1 µM (panel of 442 kinases [8]) of 76%. The remaining activity at 10 µM (panel of 442 kinases [8]; 10 µM, read-out: TRKC (% of control at 10 µM)) was 76%.

Work on `Cn1c(=O)n(-c2ccc(C(C)(C)C#N)cc2)c2c3cc(-c4cnc5ccccc5c4)ccc3ncc21` [Dactolisib, 2-methyl-2-[4-(3-methyl-2-oxo-8-quinolin-3-yl-2,3-dihydroimidazo[4,5-c]quinolin-1-yl)-phenyl] propionitrile] yielded a remaining activity at 1 µM (panel of 442 kinases [1]) of 94%, a remaining activity at 1 µM (panel of 442 kinases [2]) of 100% and a remaining activity at 1 µM (panel of 442 kinases [3]) of 86%. It also gave a remaining activity at 1 µM (panel of 442 kinases [4]) of 100%, a remaining activity at 1 µM (panel of 442 kinases [5]) of 34% and a remaining activity at 1 µM (panel of 442 kinases [6]) of 91%. It also gave a remaining activity at 1 µM (panel of 442 kinases [7]) of 72% and a remaining activity at 1 µM (panel of 442 kinases [8]) of 85%.

Work on `COc1ncc(-c2ccc3nccc(-c4ccnnc4)c3c2)cc1NS(=O)(=O)c1ccc(F)cc1F` [Omipalisib] yielded a remaining activity at 1 µM (panel of 442 kinases [1]) of 100%, a remaining activity at 1 µM (panel of 442 kinases [2]) of 100% and a remaining activity at 1 µM (panel of 442 kinases [3]) of 100%. For the same molecule, the remaining activity at 1 µM (panel of 442 kinases [4]) was 92%, the remaining activity at 1 µM (panel of 442 kinases [5]) was 100% and the remaining activity at 1 µM (panel of 442 kinases [6]) was 100%. It also gave a remaining activity at 1 µM (panel of 442 kinases [7]) of 99% and a remaining activity at 1 µM (panel of 442 kinases [8]) of 100%.

Molecule `FC(F)c1nc2ccccc2n1-c1nc(N2CCOCC2)nc(N2CCOCC2)n1` [ZSTK474, 2-(difluoromethyl)-1-[4,6-di(4-morpholinyl)-1,3,5-triazin-2-yl]-1H-benzimidazole] has a remaining activity at 1 µM (panel of 442 kinases [1]) of 100%, a remaining activity at 1 µM (panel of 442 kinases [2]) of 88% and a remaining activity at 1 µM (panel of 442 kinases [3]) of 100%. The remaining activity at 1 µM (panel of 442 kinases [4]) was 87%, the remaining activity at 1 µM (panel of 442 kinases [5]) was 100% and the remaining activity at 1 µM (panel of 442 kinases [6]) was 90%. It also gave a remaining activity at 1 µM (panel of 442 kinases [7]) of 86% and a remaining activity at 1 µM (panel of 442 kinases [8]) of 100%.
